We go through 7 compounds from patent US4876260A, “Oxathiolanes” (State of Israel, Israel Institute of Biological Research, priority 1988, dated 1989).

Structures are written as SMILES.

The term Ki denotes the equilibrium dissociation constant of an inhibitor or competing ligand from its target.

The target of series [1] is T1, M1 muscarinic receptors (3H-PZ sites, frontal cortex) (Rattus norvegicus, UniProt P08482).
T1 sequence (P08482 1-460): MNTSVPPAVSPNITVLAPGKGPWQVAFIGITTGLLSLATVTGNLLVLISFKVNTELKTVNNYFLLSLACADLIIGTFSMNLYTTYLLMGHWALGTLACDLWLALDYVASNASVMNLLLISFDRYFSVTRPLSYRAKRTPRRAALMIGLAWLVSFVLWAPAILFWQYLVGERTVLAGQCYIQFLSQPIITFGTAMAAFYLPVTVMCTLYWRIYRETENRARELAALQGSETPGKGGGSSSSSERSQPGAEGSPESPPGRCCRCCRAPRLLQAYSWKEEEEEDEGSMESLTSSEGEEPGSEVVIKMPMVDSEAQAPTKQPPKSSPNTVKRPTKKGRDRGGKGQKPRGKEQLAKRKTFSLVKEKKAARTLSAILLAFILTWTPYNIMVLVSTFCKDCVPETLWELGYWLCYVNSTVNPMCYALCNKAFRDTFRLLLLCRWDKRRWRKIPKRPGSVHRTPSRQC
Put plainly: Displacement of 3H-PZ from rat frontal cortex homogenate. The format is binding. The conditions noted are these: for Ki: (a') frontal cortex, read-out: Ki(3H-PZ); for a':c', Ki(3H-PZ):Ki(3H-CD): (g) frontal cortex ratio. On the technique in general: Loss of bound radioactivity is the signal in a displacement assay; it reports binding, not function.

For series [2], the system named is mice. As to the kind of experiment: Pharmacodynamic profile and general toxicity in mice. The format is in vivo, CD-1 mice. As for the experimental part: Male white mice of the CD-1 strain supplied by Charles River Ltd. (U.K.) were used throughout. An acclimatization period of at least three days was allowed between arrival and commencement of a particular experimental series. The animals were fed a complete commercial pelleted rodent diet without restriction during the acclimatization and study periods. Animals had free access to tap water. Body weights during testing were mostly within 20-28 g.
Test materials were prepared as aqueous solutions in physiological saline (0.9% NaCl), up to a maximum concentration of 10 mg./ml. All materials were freshly prepared on the morning prior to each dosing session. Dosages were expressed gravimetrically (mg./kg.), in terms of the materials as received.
Groups of mice (mostly n=5) received either i.v. or oral administration of the test materials at various dose levels. Dose volumes appropriate for respective dose levels selected, were determined for each animal according to body weights on the day of dosing. Any behavioral changes occurring during one to two hours after administration, as well as incidence of death up to 24 hours after dosing were recorded.

Series [3] deals with T2, M1 muscarinic receptors (3H-PZ sites, forebrain) (Rattus norvegicus, UniProt P08482).
T2 sequence (P08482 1-460): T1 sequence (P08482 1-460)
Put plainly: Displacement of 3H-Pirenzepine (3H-PZ, selective M1 antagonist) from rat forebrain homogenate. The conditions noted are these: for Ki: (a) forebrain. The format is binding.

Series [4] relates to muscarinic receptors (3H-QNB sites, cerebellum, mainly M2). Put plainly: biochemical. The format is binding, rat. To be noted: for a:b": (h) Ki(3H-PZ) forebrain : Ki(3H-QNB) cerebellum; for b:b": (j) Ki(3H-QNB) forebrain : Ki(3H-QNB) cerebellum.
Series [5] relates to isolated guinea-pig ileum. Put plainly: Contraction of isolated guinea-pig ileum preparation. From the text: From this Table, it appears that compounds (III) were not so effective in contracting the guinea pig ileum preparation.
The mark [6] stands for this setting: 25 mg/kg i.v., listed as (-)-III AF122A.
The mark [7] stands for this setting: 50 mg/kg i.v., listed as (-)-III AF122A.
Where [8] appears, read: 100 mg/kg i.v., immed = immediately.
[9] abbreviates: 200 mg/kg p.o., listed as (-)-III AF122A.
The mark [10] stands for this setting: 10 mg/kg i.v., listed as (-)-III AF122B.
Setting [11] is: 25 mg/kg i.v., listed as (-)-III AF122B.
Setting [12] is: 50 mg/kg i.v., listed as (-)-III AF122B.
[13] abbreviates: 200 mg/kg p.o., listed as (-)-III AF122B.
The mark [14] stands for this setting: 50 mg/kg i.v., listed as (+)-III AF122A.
Setting [15] is: 200 mg/kg p.o., listed as (+)-III AF122A.

Turning to `CC1OCC2(CN3CCC2CC3)S1` (single isomer, unassigned) [compound 12, 2-methylspiro(1,3-oxathiolan-4,3')quinuclidine], the Ki in series [1] amounted to 0.35 ± 0.04 µM. Besides, the “Mortality, No. dead/total treated” value in series [2] (10 mg/kg i.v., listed as (-)-III AF122A) was 0/5; in series [2] (setting [6]) it was 1/5; in series [2] (setting [7]) it was 1/1; in series [2] (100 mg/kg i.v., listed as (-)-III AF122A) it was 1/1; in series [2] (100 mg/kg p.o., listed as (-)-III AF122A), 0/5; in series [2] (setting [9]), 1/5. In series [2] (25 mg/kg i.v.), the “Exophthalmus, No. affected/total treated” value is on record as 4/5. Also, the figures for the “Convulsive seizures, No. affected/total treated” value in series [2] (setting [6]), in series [2] (setting [7]) and in series [2] (setting [9]) were 1/5, 1/1 and 1/5, respectively. For the same compound, the “Mortality, time after drug administration” value (shortened to “Mortality, time”) in series [2] (setting [6]) is 10 s; in series [2] (setting [7]), 10 s; in series [2] (setting [8]) it was “immed”; in series [2] (200 mg/kg p.o., m = minutes, listed as (-)-III AF122A), 10 m. Moreover, the figures for the “Respiratory distress, No. affected/total treated” value in series [2] (setting [6]) and in series [2] (setting [9]) were 4/5 and 3/5, respectively. Besides, the entries for the “Tremors, No. affected/total treated” value in series [2] (setting [6]), in series [2] (setting [7]) and in series [2] (200 mg/kg p.o.) were 4/5, 1/1 and 3/5, respectively. Besides, the “Vocalization, No. affected/total treated” value in series [2] (setting [9]) was 2/5.

Consider `C[C@H]1O[C@]2(CS1)CN1CCC2CC1` (single isomer, unassigned) [Compound #5, 2-methylspiro(1,3-oxathiolan-5,3')quinuclidine], for which, in series [3], the “a:b, Ki(3H-PZ):Ki(3H-QNB)” value is on record as 0.3 and the Ki came to 1.1 ± 0.3 µM. Besides, in series [1], the Ki came to 0.41 ± 0.08 µM and the “a':c', Ki(3H-PZ):Ki(3H-CD)” value came to 2.1. Moreover, in series [4], the “a:b"” value was 0.14 and the “b:b"” value stood at 0.47.

With `CC1OCC2(CN3CCC2CC3)S1` (single isomer, unassigned) [compound 9, 2-methylspiro(1,3-oxathiolan-4,3')quinuclidine], the inhibition constant (Ki) in series [1] is 12.1 µM. Also, in series [5] (listed as (-)-AF122B), the “Contraction of guinea pig ileum (in words)” value is on record as “inconsistent contractile response: sometimes at high concentrations it induced contractions, whereas at other times it did not”. The “Analgesia (nonresponsiveness to tail pinch), No. affected/total treated” value in series [2] (setting [10]) is given as 3/5; in series [2] (25 mg/kg i.v.), 5/5; in series [2] (setting [13]), 3/4. Moreover, the “Mortality, No. dead/total treated” value in series [2] (setting [10]) is 0/5; in series [2] (setting [11]), 0/5; in series [2] (setting [12]), 2/2; in series [2] (100 mg/kg i.v., listed as (-)-III AF122B), 2/2; in series [2] (100 mg/kg p.o., listed as (-)-III AF122B), 1/5; in series [2] (setting [13]), 4/4. Further, the “Vocalization, No. affected/total treated” value in series [2] (25 mg/kg i.v.) was 1/5; in series [2] (setting [13]) it was 2/4. The Altered motor activity entry in series [2] (setting [11]) and in series [2] (50 mg/kg p.o.) was “a+h” each time. Also, the “Convulsive seizures, No. affected/total treated” value in series [2] (setting [11]) is listed as 3/5; in series [2] (setting [12]) it was 2/2; in series [2] (100 mg/kg p.o.), 2/5; in series [2] (setting [13]), 4/4. Also, the “Respiratory distress, No. affected/total treated” value in series [2] (setting [11]) is 2/5; in series [2] (100 mg/kg p.o.), 1/5; in series [2] (setting [13]), 3/5. Also, the “Tremors, No. affected/total treated” value in series [2] (setting [11]) is on record as 3/5; in series [2] (100 mg/kg p.o.) it was 1/5. For the same compound, the “Mortality, time” value in series [2] (setting [12]) is 5 s; in series [2] (setting [8]), “immed”; in series [2] (200 mg/kg p.o., m = minutes, listed as (-)-III AF122B), 20 m.

As to `CC1OCC2(CN3CCC2CC3)S1` (single isomer, unassigned) [compound 13, 2-methylspiro(1,3-oxathiolan-4,3')quinuclidine], the Ki in series [1] is 4.21 ± 0.47 µM. Further, the “Mortality, No. dead/total treated” value in series [2] (10 mg/kg i.v., listed as (+)-III AF122A) is on record as 0/5; in series [2] (25 mg/kg i.v., listed as (+)-III AF122A) it was 0/5; in series [2] (setting [14]), 4/5; in series [2] (50 mg/kg p.o.), 0/5; in series [2] (100 mg/kg i.v., listed as (+)-III AF122A), 1/1; in series [2] (100 mg/kg p.o., listed as (+)-III AF122A), 0/5. Moreover, the “Mortality, No. dead/total treated” value in series [2] (setting [15]) was 0/5. Besides, the “Exophthalmus, No. affected/total treated” value in series [2] (50 mg/kg i.v.) is recorded as 3/5. In series [2] (setting [14]), the “Convulsive seizures, No. affected/total treated” value is listed as 5/5. The “Mortality, time” value is recorded as 30 s in series [2] (setting [14]) and “immed” in series [2] (setting [8]). For the same compound, in series [2] (setting [14]), the “Tremors, No. affected/total treated” value is 4/5. The Altered motor activity result in series [2] (setting [15]) is “a+h”.

Take `C[C@H]1O[C@]2(CS1)CN1CCC2CC1` (relative stereo) [compound 4, 2-methylspiro(1,3-oxathiolan-5,3')quinuclidine]: in series [3], the “a:b, Ki(3H-PZ):Ki(3H-QNB)” value is 0.14 and the Ki is 1 ± 0.4 µM. In series [1], the “a':b', Ki(3H-PZ):Ki(3H-QNB)” value stood at 0.13; the Ki worked out at 0.96 ± 0.05 µM; the “a':c', Ki(3H-PZ):Ki(3H-CD)” value was 2.5. Moreover, in series [4], the “a:b"” value worked out at 0.07 and the “b:b"” value came out at 0.47. Also, the “a':b"” value in series [4] ((i) Ki(3H-PZ) frontal cortex : Ki(3H-QNB) cerebellum) is listed as 0.1. The “b':b"” value in series [4] ((k) Ki(3H-QNB) frontal cortex : Ki(3H-QNB) cerebellum) came to 0.39. The “Agonist type (remarks)” value in series [5] is given as “Full agonist”.

Take `C[C@H]1O[C@]2(CS1)CN1CCC2CC1` (single isomer, unassigned) [compound 6, 2-methylspiro(1,3-oxathiolan-5,3')quinuclidine]: in series [3], the “a:b, Ki(3H-PZ):Ki(3H-QNB)” value is recorded as 0.20 and the Ki is 9.6 ± 1.8 µM. Moreover, in series [1], the Ki was 4.63 ± 0.42 µM and the “a':c', Ki(3H-PZ):Ki(3H-CD)” value was 0.6. Besides, in series [4], the “a:b"” value worked out at 0.1 and the “b:b"” value turned out to be 0.48.

In the case of `C[C@@H]1O[C@]2(CS1)CN1CCC2CC1` (relative stereo) [compound 3, 2-methylspiro(1,3-oxathiolan-5,3')quinuclidine], in series [3], the “a:b, Ki(3H-PZ):Ki(3H-QNB)” value came to 0.59 and the Ki was 14.6 ± 2.9 µM. Moreover, in series [4], the “a:b"” value is recorded as 0.52 and the “b:b"” value turned out to be 0.88.
